4 compounds from US12637719B2, “Panel of ER regulated genes for use in monitoring endocrine therapy in breast cancer” (Sanofi, priority 2020, dated 2026) can be followed below.

Assay [1] relates to ERα transcriptional activity in HCC1428-LTED cells. As to the kind of experiment: ER activity score (GSVA on 87-gene ER signature, RNA-seq) in HCC1428-LTED cells. It is filed as cell-based. Particulars: for ER activity score / ERα transcriptional activity (GSVA on ER signature): 300 nM (high) or 30 nM (low), 24 hours, absence of exogenous estrogen, FIG. 1B. Here is the method:
The term “ER activity score,” as used herein, refers to a score obtained by using a computational method such as GSVA (Hanzelmann et al., GSVA: gene set variation analysis for microarray and RNA-seq data, in BMC Bioinformatics, 2013; 14:7, incorporated herein by reference in its entirety for its description of calculating scores using the GSVA method) on a gene expression data set obtained from a biological sample. An E2-induced score and an E2-suppressed score are calculated individually. […] The ER activity score is computed as follows: ER Activity Score=ER-induced score−E2-suppressed score.
(§1) An RNA-seq library of 96 SERD RNA samples was prepared using a kit from NuGen Ovation® Universal RNA-Seq System Method (Illumina® Platforms) conforming to the manufacturer's protocol. The 50 bp rapid single-read flow cell was used to sequence the library on the Illumina HiSeq 2500 in the rapid mode. […] TPM was calculated as calculated measured as an expression unit and then quantile-normalized and log 2-transformed. […] ER-regulated genes were identified using two comparisons. First, genes were identified that were modulated by one or more SERM or SERD compounds in Table 1 and modulated in the opposite direction by estradiol ([log 2 FC]>2 and FDR<0.05 vs. DMSO control). To identify genes that are differentially expressed between SERD compound treatment and dimethyl sulfoxide (DMSO; control) treatment groups, a two-factor (treatment and dose) analysis of variance (ANOVA) model was used at respective dose and time points. The treatment factor was fixed, with seven levels: six SERD compounds and the DMSO control. The dose factor was also fixed, with two levels: low and high. All samples were treated at 24h. Post hoc contrast analyses were performed at each dose and time level, between each SERD compound treatment and the DMSO control. […] This analysis was performed using Array Studio (Qiagen). The panel of 1022 genes identified as differentially expressed in at least one compound-versus-DMSO comparison were used for hierarchical clustering of compound treatment data normalized to DMSO control at respective dose and time points. Complete-linkage clustering was performed based on Pearson correlation coefficients. Expression profile similarity between compounds was assessed by Pearson correlation on the differentially expressed genes.
(§2) To evaluate the ER modulation by amcenestrant and other SERDs, we treated HCC1428-LTED (long term estrogen deprived) breast cancer cell lines with SERD compounds at either 300 nM (high) or 30 nM (low) in 24 hours. To unmask the ER-intrinsic activity, we then evaluated gene expression after compound treatment in HCC1428-LTED cells, which is a cell line that is hormone-deprived. Changes in global mRNA expression were assessed 24 hours post treatment.
(§3) To assess the relative ER modulating activity of the compounds, a panel of ER regulated genes (87 genes, Table 3) was developed by transcriptional profiling of multiple cell lines to identify genes that were modulated by estradiol and then blocked by SERM and SERD. This panel of ER regulated genes can be used to measure ER modulation by SERMs and SERDs. An ER Activity Score was then assessed using gene set variation analysis (GSVA) on the ER Signature (BMC Bioinformatics. 2013; 14:7).

Assay [2] concerns HCC1428-LTED cells. The assay is described as follows: Global mRNA expression profile similarity between SERDs (1022 differentially expressed genes, Pearson correlation). In kind it is cell-based. Particulars: 24 hours post treatment, 1022 transcripts, FIG. 1A, FIG. 3. As for the experimental part:
as §1, with “The panel of 1022 genes identified as differentially expressed in at least one compound-versus-DMSO comparison were used for hierarchical clustering of compound treatment data normalized to DMSO control at respective dose and time points. Complete-linkage clustering was performed based on Pearson correlation coefficients.” left out
as §2

For assay [3], the system named is ERα target genes CXCL12 and BCAS1. As to the kind of experiment: RT-qPCR of ERα target genes CXCL12 and Bcas1 in HCC1428-LTED cells. The following applies: for expression of CXCL12 by RT-qPCR: FIG. 1C; for expression of Bcas1 by RT-qPCR: FIG. 1D. It is filed as cell-based. As for the experimental part:
RNA was extracted using the RNeasy kit (Qiagen) per the manufacturers instruction, quantified by NanoDrop 8000 (ThermoScientific) and reverse-transcribed with cDNA archive kit (Applied Biosystems). Taqman gene expression assays (Applied Biosystems) were used to quantify PGR (Hs00172183_m1), Bcas 1 (Hs00952822_m1), CXCL12 (Hs03676656_mH), BLNK1(Hs00929914_m1), IL20 (Hs00218888_m1) and the house-keeping genes PGK (Hs00391480_m1) and GAPDH (Hs99999905 ml) The relative quantities were determined using ΔΔ threshold cycle (ΔΔCt), according to the manufacturer's instructions (Applied Biosystems).
as §2
Findings were confirmed by measuring the expression of two well-validated ER target genes, CXCL12 and BCAS1, by RT-qPCR. Gene expression analysis provided further confirmation of the differential response of these molecules on well-validated ERα target genes (Elife. 2016; 5, Endocr Relat Cancer. 2015; 22(5):713-24).

The test system of assay [4] is ERα target genes PGR and CXCL12 in HCI013 tumors. The assay is described as follows: RT-qPCR of PGR and CXCL12 in HCI013 PDX tumors. In kind it is in vivo, human. Here is the method: FIG. 2. […] For FIG. 2 *P<0.05; denotes significance compared to vehicle treated group at end of study using unpaired t test. FIGS. 4A-B. Evaluation of target gene modulation in ERα ligands in an endocrine therapy-resistant tumor model. […] Data represent mean and standard deviation for 3 replicates for CXCL12 gene expression. An ER Signature of 87 genes was that were modulated by estradiol and then blocked by SERM and SERD compounds was used to calculate the ER Activity Score and was assessed using gene set variation analysis (GSVA). Data represents the mean and deviation from the mean for each of the described treatments. RNA was extracted using the RNeasy kit (Qiagen) per the manufacturers instruction, quantified by NanoDrop 8000 (ThermoScientific) and reverse-transcribed with cDNA archive kit (Applied Biosystems). Taqman gene expression assays (Applied Biosystems) were used to quantify PGR (Hs00172183_m1), Bcas 1 (Hs00952822_m1), CXCL12 (Hs03676656_mH), BLNK1(Hs00929914_m1), IL20 (Hs00218888_m1) and the house-keeping genes PGK (Hs00391480_m1) and GAPDH (Hs99999905 ml) The relative quantities were determined using ΔΔ threshold cycle (ΔΔCt), according to the manufacturer's instructions (Applied Biosystems).
On the technique in general: Quantitative PCR measures a nucleic acid by following its amplification.

The test system of assay [5] is ERα signaling in HCI013 PDX tumor model. As to the kind of experiment: ER activity score (GSVA, 87-gene signature) in HCI013 PDX tumor model. It is filed as in vivo, human. The following applies: 8 h after last administration; SAR439859 100 mg/kg QD, GDC0810 100 mg/kg QD; FIG. 4B. As for the experimental part:
FIGS. 4A-B. Evaluation of target gene modulation in ERα ligands in an endocrine therapy-resistant tumor model. […] Data represent mean and standard deviation for 3 replicates for CXCL12 gene expression. An ER Signature of 87 genes was that were modulated by estradiol and then blocked by SERM and SERD compounds was used to calculate the ER Activity Score and was assessed using gene set variation analysis (GSVA). Data represents the mean and deviation from the mean for each of the described treatments.
as §3
The ERα transcriptional activity was analyzed in the HCI013 model using the panel of genes corresponding to the ER gene signature derived from the in vitro cell line analysis as previously described.

The test system of assay [6] is Ki67. The assay is described as follows: IHC Ki67 protein expression (percent positive tumor cells) in paired tumor biopsies, Phase 1/2 study. In kind it is in vivo, human. The following applies: screening to Cycle 2, Day 28; 400 mg PO QD; n=7; range −30% to +30%; FIG. 6C. Here is the method:
Staining was evaluated in tumor cells only. For ER and PgR expression, H-scores were calculated.

In assay [7] the test system is ER pathway. The assay is described as follows: ER activation score by GSVA (RNA-seq) in paired tumor biopsies, Phase 1/2 study. It is filed as in vivo, human.

“Also recorded” adds a separate entry of the source.

Turning to `C[C@]12CC[C@@H]3c4ccc(O)cc4C[C@@H](CCCCCCCCC[S+]([O-])CCCC(F)(F)C(F)(F)F)[C@H]3[C@@H]1CC[C@@H]2O` (stereo partly drawn) [Fulvestrant], the “ER activity score / ERα transcriptional activity (GSVA on ER signature)” value is reported as “deep inhibition” in assay [1] and “strongly reduced” in assay [1] (listed as fulvestrant). For the same compound, the “modulation of ERα intrinsic activity in the absence of E2 (inverse agonist activity)” value in assay [1] is recorded as “profound modulation”.

As for `O=C(O)c1ccc2c(c1)CCCC(c1ccc(Cl)cc1Cl)=C2c1ccc(O[C@H]2CCN(CCCF)C2)cc1` [SAR439859, 6-(2,4-dichlorophenyl)-5-[4-[(3S)-1-(3-fluoropropyl)pyrrolidin-3-yl]oxyphenyl]-8,9-dihydro-7H-benzo[7]annulene-2-carboxylic acid], in assay [1], the “ER activity score / ERα transcriptional activity (GSVA on ER signature)” value is on record as “strongly reduced; also recorded: deep inhibition” and the “modulation of ERα intrinsic activity in the absence of E2 (inverse agonist activity)” value is reported as “profound modulation”. Also, in assay [2], the “correlation of induced expression profile to that of fulvestrant” value (from here on “correlation”) is “closely correlated”. For the same compound, in assay [3], the “expression of CXCL12 by RT-qPCR” value is “inhibited expression” and the “expression of Bcas1 by RT-qPCR” value is listed as “induced expression”. Besides, the “CXCL12 gene expression in HCI013 tumors (RT-qPCR)” value in assay [4] (8 h after last administration, SAR439859 100 mg/kg QD compared to fulvestrant 200 mg/kg Q2W or GDC0810 100 mg/kg QD, FIG. 4A) is given as “stronger inhibition”. Moreover, in assay [4] (8 hours after last administration, SAR439859 100 mg/kg compared to fulvestrant 200 mg/kg or GDC0810 100 mg/kg, FIG. 2), the “PGR gene expression in HCI013 tumors (RT-qPCR)” value is listed as “stronger inhibition”. The “ERα transcriptional activity (ER activity score) in HCI013 model” value in assay [5] is on record as “more marked ERα suppression”. Besides, the “median change from screening in percentage of Ki67 positive cells” value in assay [6] was −8%. Besides, the “ER activation score by GSVA, median change from screening” value in assay [7] (all patients with paired biopsies, n=5, range −1.1 to +0.4, FIG. 6D) is given as −0.4. Further, in assay [7] (patients with clinical benefit, n=4, range −1.1 to 0), the “ER activation score by GSVA, median change from screening, patients who showed clinical benefit” value is listed as −0.6. Also, the “ER activation score by GSVA, change from screening, patient with no clinical benefit” value in assay [7] (the one patient with no clinical benefit) is “+0.4”.

In the case of `CC/C(=C(/c1ccc(/C=C/C(=O)O)cc1)c1ccc2[nH]ncc2c1)c1ccc(F)cc1Cl` [GDC-0810], the “ER activity score / ERα transcriptional activity (GSVA on ER signature)” value in assay [1] is reported as “only partially reduced; also recorded: only partially inhibited”. The “correlation” value in assay [2] is on record as “only weakly correlated”. In assay [3], the “expression of CXCL12 by RT-qPCR” value is “failed to elicit any significant change” and the “expression of Bcas1 by RT-qPCR” value is “failed to elicit any significant change”. Further, the “ERα transcriptional activity (ER activity score) in HCI013 model” value in assay [5] is “suppressive activity”.

For `C[C@@H]1Cc2c([nH]c3ccccc23)[C@@H](c2c(F)cc(/C=C/C(=O)O)cc2F)N1CC(C)(C)F` [AZD9496], the “ER activity score / ERα transcriptional activity (GSVA on ER signature)” value in assay [1] was “only partially reduced; also recorded: only partially inhibited”. For the same compound, in assay [2], the “correlation” value was “only weakly correlated”. For the same compound, in assay [3], the “expression of CXCL12 by RT-qPCR” value is “failed to elicit any significant change” and the “expression of Bcas1 by RT-qPCR” value is “failed to elicit any significant change”.
